The record followed here is patent US20120129842A1, “BISTHIAZOLE INHIBITORS OF PRO-MATRIX METALLOPROTEINASE ACTIVATION” (priority 2010, published 2012).

Assay [1] relates to SCW-induced arthritis. Put plainly: Efficacy in rats with SCW-induced arthritis (ankle thickness, clinical scores). It counts as in vivo, rat. To be noted: 5, 20, 50 mg/kg BID oral. From the text:
A polyarthritis can be induced in female Lewis rats following i.p. administration of streptococcal cell wall (SCW) […] (PG-PS) (J Exp Med 1977; 146:1585-1602). The model has an acute phase (days 3-7) that is complement and neutrophil-dependent and that resolves. A chronic erosive phase begins at about day ten and is dependent on the development of specific T cell immunity to the PG-GS, which resists digestion and remains present in synovial macrophages for months. Like rheumatoid arthritis, SCW-induced arthritis is reduced by TNF inhibitors, and the dependence of SCW-induced arthritis on macrophages (Rheumatology; 2001; 40:978-987) and the strong association of rheumatoid arthritis severity with synovial-tissue macrophage counts (Ann Rheum Dis; 2005; 64:834-838) makes SCW-arthritis an attractive model for testing potential therapeutic agents. SCW PG-PS 10S (Beckton Dickinson Cat#210866) suspended in saline was vortexed for 30 seconds and sonicated for 3 min with a probe type sonicator prior to injection. […]
To induce arthritis, Female Lewis (LEW/N) rats, 5-6 weeks of age (80-100 g) were injected (i.p.) with SCW PG-PS as described above. […] Each ankle was measured 3 times and averaged, and treatment groups were randomized based on ankle thickness (Table 6). […]

Assay [2] has as its target T1, MMP9 (Rattus norvegicus, UniProt P50282).
T1 construct: Pro and active MMP9 were abundantly present in ankles of SCW-induced vehicle-treated rats; from tissue; host or cells: ankle (tibia-tarsus joint) homogenates of female Lewis rats
Put plainly: Pro and active MMP9 in ankles of rats with SCW-induced arthritis by Western blot. It counts as in vivo. To be noted: Day 26, four hours after AM dose, mAb-L51/82, FIG. 3A. The procedure:
Hind-limbs were skinned, severed just above the tibia-tarsus joint and below the metatarsals, and the tibia-tarsus joints (ankles) were weighed, snap frozen and pulverized on dry ice using a hammer and anvil. The pulverized tissue was suspended in 3 volumes (w:v) of ice-cold homogenization buffer containing 50 mM Tris pH 7.5, 150 mM NaCl, 5 mM EDTA, 1% Triton X100, 0.05% Brij 30, 10% dimethylsulfoxide and Complete EDTA-free Protease Inhibitor Cocktail (Roche Diagnostics). The suspended tissue was homogenized sequentially with a Kinematica AG Polytron and a Dounce homogenizer. Homogenates were centrifuged at 16,000×g for 10 min at 4° C. and the soluble fractions were saved. Dimethylsulfoxide was removed from a portion of each soluble fraction using PD MiniTrap™ G-25 desalting columns (GE Healthcare). Homogenates (0.25 mL), free of DMSO, were diluted with an equal volume of binding buffer (i.e., homogenization buffer without dimethylsufoxide) and adjusted to contain 50 μL of a 50% slurry of gelatin-conjugated sepharose. Following 2 hours of rotation at 4° C. the beads were washed twice in binding buffer and eluted in 100 μL 2×-reducing Laemmli buffer with heating to 95° C. for 5 minutes. […]
A general note: Immunoblotting shows a protein as a band on a membrane.

T1 sequence (P50282 108-708): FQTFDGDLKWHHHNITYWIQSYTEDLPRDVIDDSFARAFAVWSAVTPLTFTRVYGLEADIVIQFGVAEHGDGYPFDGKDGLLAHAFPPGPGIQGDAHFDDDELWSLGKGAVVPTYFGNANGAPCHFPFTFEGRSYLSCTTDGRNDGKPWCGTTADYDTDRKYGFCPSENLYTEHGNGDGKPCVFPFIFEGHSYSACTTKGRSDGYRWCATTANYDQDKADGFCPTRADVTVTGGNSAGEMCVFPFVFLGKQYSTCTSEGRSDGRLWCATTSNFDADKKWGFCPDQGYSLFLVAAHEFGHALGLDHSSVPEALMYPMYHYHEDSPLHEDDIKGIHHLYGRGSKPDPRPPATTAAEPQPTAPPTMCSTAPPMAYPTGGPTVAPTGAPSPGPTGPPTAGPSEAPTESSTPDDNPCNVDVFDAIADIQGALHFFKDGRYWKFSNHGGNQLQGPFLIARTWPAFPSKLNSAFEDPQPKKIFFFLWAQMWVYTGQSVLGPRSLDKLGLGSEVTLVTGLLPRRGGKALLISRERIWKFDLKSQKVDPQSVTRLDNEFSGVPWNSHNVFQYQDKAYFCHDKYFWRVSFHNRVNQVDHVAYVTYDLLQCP

As to `Cc1nc(C)c(-c2csc(Nc3cc(S(N)(=O)=O)ccc3OC(C)C)n2)s1` [Example 64, 3-(2′,4′-Dimethyl-[4,5′]bithiazolyl-2-ylamino)-4-isopropoxy-benzenesulfonamide.HBr], in assay [1] (Day 18-26), the “ankle thickness measurements, effect of treatment” value is reported as “dose-dependent decrease in ankle thickness measurements”. In addition, the “clinical score measurements, effect of treatment” value in assay [1] (significant effects emerging at 20 mg/kg) is listed as “dose dependent decrease in clinical score measurements”. For the same compound, in assay [2], the “abundance of proMMP9 in ankles” value is reported as “did not reduce the abundance of proMMP9”.
